Laboratory results taken from the NIST ThermoML archive (doi:10.1016/j.fluid.2013.01.022).

Experiments:
[1] = 298.15 K; 101.33 kPa; Liquid; Vibrating tube method
[2] = refractive index (Na D-line) (dimensionless); settings: 298.15 K; 101.33 kPa; Liquid; Standard Abbe refractometry
[3] = xn = mol fraction of the nth substance listed; settings: 298.15 K, 101 kPa, Liquid, Vibrating tube method
[4] = refractive index (Na D-line) (dimensionless); xn = mol fraction of the nth substance listed; settings: 298.15 K, 101 kPa, Liquid, Standard Abbe refractometry

CC(CC(C)(C)C)CP(=O)([O-])CC(C)CC(C)(C)C.CCCCCCCCCCCCCC[P+](CCCCCC)(CCCCCC)CCCCCC
Settings | mass density [kg/m3] | refractive index
[1] | 886.43 | –
[2] | – | 1.47125

CC(CC(C)(C)C)CP(=O)([O-])CC(C)CC(C)(C)C.CCCCCCCCCCCCCC[P+](CCCCCC)(CCCCCC)CCCCCC + CCO
Settings | mass density, [3] [kg/m3] | refractive index, [4]
x2 = 0.051 | 886.25 | 1.47094
x2 = 0.1022 | 886.05 | 1.47076
x2 = 0.2136 | 885.54 | 1.46988
x2 = 0.305 | 885 | 1.46895
x2 = 0.4024 | 884.17 | 1.46802
x2 = 0.5019 | 882.93 | 1.46563
x2 = 0.5976 | 881.05 | 1.46367
x2 = 0.6989 | 877.74 | 1.459
x2 = 0.7998 | 871 | 1.45104
x2 = 0.9003 | 854.34 | 1.44331
x2 = 0.9499 | 840.31 | 1.43816

CC(CC(C)(C)C)CP(=O)([O-])CC(C)CC(C)(C)C.CCCCCCCCCCCCCC[P+](CCCCCC)(CCCCCC)CCCCCC + CCOC(C)(C)C
Settings | mass density, [3] [kg/m3] | refractive index, [4]
x2 = 0.0425 | 886 | 1.4696
x2 = 0.0954 | 885.1 | 1.4691
x2 = 0.2026 | 882.46 | 1.4673
x2 = 0.2904 | 879.48 | 1.4653
x2 = 0.4013 | 874.66 | 1.4623
x2 = 0.4971 | 869.23 | 1.4587
x2 = 0.6023 | 861.11 | 1.4539
x2 = 0.7002 | 850.33 | 1.4464
x2 = 0.7999 | 832.96 | 1.435
x2 = 0.8998 | 802.31 | 1.4225
x2 = 0.9503 | 776.41 | 1.4154

CCOC(C)(C)C [2-ethoxy-2-methylpropane]
Settings | mass density [kg/m3] | refractive index
[1] | 735.85 | –
[2] | – | 1.37358

CCO [ethanol]
Settings | mass density [kg/m3] | refractive index
[1] | 785.22 | –
[2] | – | 1.35925

CCCCCCCCCCCCCC[P+](CCCCCC)(CCCCCC)CCCCCC.[Cl-] [trihexyl(tetradecyl)phosphonium chloride]
Settings | mass density [kg/m3] | refractive index
[1] | 891.82 | –
[2] | – | 1.48175

CCCCCCCCCCCCCC[P+](CCCCCC)(CCCCCC)CCCCCC.[Cl-] [trihexyl(tetradecyl)phosphonium chloride] + CCOC(C)(C)C
Settings | mass density, [3] [kg/m3] | refractive index, [4]
x2 = 0.0473 | 890.24 | 1.4804
x2 = 0.1037 | 888.11 | 1.4788
x2 = 0.1961 | 884.09 | 1.4762
x2 = 0.3076 | 878.3 | 1.4727
x2 = 0.3968 | 872.72 | 1.4688
x2 = 0.5075 | 864.28 | 1.4624
x2 = 0.5981 | 855.37 | 1.4562
x2 = 0.6992 | 841.62 | 1.4463
x2 = 0.7993 | 821.34 | 1.432
x2 = 0.8987 | 790.03 | 1.4104
x2 = 0.9496 | 767.05 | 1.3943
